One assay has as its target T1, JAK3 (Homo sapiens, UniProt P52333).
T1 sequence (P52333 1-1124): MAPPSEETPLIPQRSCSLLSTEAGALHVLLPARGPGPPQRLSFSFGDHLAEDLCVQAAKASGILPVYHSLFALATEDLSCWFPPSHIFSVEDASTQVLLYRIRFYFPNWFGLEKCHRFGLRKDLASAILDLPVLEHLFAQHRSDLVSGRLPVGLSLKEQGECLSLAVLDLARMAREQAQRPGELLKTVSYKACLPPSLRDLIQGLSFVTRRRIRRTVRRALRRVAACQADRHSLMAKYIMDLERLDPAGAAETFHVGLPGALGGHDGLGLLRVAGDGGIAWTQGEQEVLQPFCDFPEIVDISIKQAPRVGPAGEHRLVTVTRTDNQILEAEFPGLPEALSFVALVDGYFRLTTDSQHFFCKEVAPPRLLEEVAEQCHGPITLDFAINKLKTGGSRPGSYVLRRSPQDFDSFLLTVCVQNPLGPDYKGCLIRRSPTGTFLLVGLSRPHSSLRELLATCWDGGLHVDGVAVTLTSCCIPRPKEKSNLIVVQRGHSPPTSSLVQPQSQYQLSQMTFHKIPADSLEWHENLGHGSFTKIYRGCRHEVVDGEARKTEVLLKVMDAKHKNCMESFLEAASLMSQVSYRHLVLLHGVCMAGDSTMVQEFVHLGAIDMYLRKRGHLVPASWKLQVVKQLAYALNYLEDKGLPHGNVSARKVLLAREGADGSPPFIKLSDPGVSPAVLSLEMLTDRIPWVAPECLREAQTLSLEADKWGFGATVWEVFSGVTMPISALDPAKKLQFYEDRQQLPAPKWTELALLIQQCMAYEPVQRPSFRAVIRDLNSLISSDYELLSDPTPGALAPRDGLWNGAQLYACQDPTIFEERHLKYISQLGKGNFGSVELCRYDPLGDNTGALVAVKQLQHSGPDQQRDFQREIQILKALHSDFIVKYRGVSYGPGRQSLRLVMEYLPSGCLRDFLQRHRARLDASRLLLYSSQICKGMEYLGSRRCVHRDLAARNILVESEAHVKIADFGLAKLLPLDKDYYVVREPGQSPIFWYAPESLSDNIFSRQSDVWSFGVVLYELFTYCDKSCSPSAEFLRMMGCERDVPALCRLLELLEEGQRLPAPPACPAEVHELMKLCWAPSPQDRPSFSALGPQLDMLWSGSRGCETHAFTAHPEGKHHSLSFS
In words: biochemical.

For assay [1], the target named is N-terminally truncated Abl kinase. Briefly: Abl kinase activity inhibition assay, coupled enzyme. It counts as biochemical. The note with it: read-out: Abl (wild) Ki; 110 μM ATP, 30° C., 21 nM Abl kinase. The protocol:
Final concentrations of the components of the coupled enzyme system were 2.5 mM phosphoenolpyruvate, 200 μM NADH, […] pyruvate kinase and 20 μg/ml lactate dehydrogenase.
An assay stock buffer solution was prepared containing all of the reagents listed above with the exception of ATP and the test compound of interest. […] Rates of reaction were obtained using a Molecular Devices Spectramax plate reader (Sunnyvale, Calif.) over 10 min at 30° C. The Ki values were determined from the residual rate data as a function of inhibitor concentration using nonlinear regression (Prism 3.0, Graphpad Software, San Diego, Calif.).

For another assay, the target named is Arg (Abl-2) (Homo sapiens, UniProt P42684). Briefly: Arg (Abl-2) inhibition assay. It counts as biochemical. The note with it: ATP at or close to Km. The text has this:
(§1) Compound I-1 was screened for its ability to inhibit Arg (Abl-2), FGFR1, MELK, MLK1, MuSK, Ret, and TrkA using screening methods known to one of ordinary skill in the art. All of the above enzymes were screened with ATP concentrations at or close to the Km for ATP.

A further assay deals with FGFR1 (Homo sapiens, UniProt P11362). In words: FGFR1 inhibition assay. It counts as biochemical. The note with it: ATP at or close to Km.
Excerpt: as §1

Another assay concerns the target MELK (Homo sapiens, UniProt Q14680). Briefly: MELK inhibition assay. It counts as biochemical. The settings on record: ATP at or close to Km.
Excerpt: as §1

The next assay deals with MLK1 (Homo sapiens, UniProt P80192). Briefly: MLK1 inhibition assay. It counts as biochemical. The settings on record: ATP at or close to Km.
Excerpt: as §1

The target of a further assay is T2, MuSK (Homo sapiens, UniProt O15146).
T2 sequence (O15146 24-869): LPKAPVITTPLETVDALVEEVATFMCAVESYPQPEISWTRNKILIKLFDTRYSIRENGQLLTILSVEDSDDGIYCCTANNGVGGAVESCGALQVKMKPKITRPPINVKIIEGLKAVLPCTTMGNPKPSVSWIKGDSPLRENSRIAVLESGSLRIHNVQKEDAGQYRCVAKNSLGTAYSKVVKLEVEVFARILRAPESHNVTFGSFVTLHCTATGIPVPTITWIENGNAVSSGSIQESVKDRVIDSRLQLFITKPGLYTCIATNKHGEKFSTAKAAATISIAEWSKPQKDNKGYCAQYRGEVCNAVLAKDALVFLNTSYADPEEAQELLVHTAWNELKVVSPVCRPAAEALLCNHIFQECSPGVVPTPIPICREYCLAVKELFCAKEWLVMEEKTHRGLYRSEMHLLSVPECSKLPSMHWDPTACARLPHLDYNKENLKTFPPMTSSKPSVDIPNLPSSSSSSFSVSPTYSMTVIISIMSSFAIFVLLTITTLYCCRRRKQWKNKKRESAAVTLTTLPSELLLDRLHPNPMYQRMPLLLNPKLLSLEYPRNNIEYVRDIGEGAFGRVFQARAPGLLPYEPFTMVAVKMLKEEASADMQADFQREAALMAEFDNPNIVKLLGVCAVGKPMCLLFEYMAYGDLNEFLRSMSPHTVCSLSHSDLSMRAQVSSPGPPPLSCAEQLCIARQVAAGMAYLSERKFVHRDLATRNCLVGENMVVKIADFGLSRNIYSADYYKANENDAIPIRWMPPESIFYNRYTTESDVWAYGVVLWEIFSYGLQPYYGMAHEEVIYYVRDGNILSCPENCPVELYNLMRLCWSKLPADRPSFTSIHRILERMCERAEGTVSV
Briefly: MuSK inhibition assay. It counts as biochemical. The note with it: ATP at or close to Km.
Excerpt: as §1

The next assay has as its target Ret (Homo sapiens, UniProt P07949). In words: Ret inhibition assay. It counts as biochemical. The settings on record: ATP at or close to Km.
Excerpt: as §1

In a further assay the target is TrkA (Homo sapiens, UniProt P04629). Briefly: TrkA inhibition assay. It counts as biochemical. The settings on record: ATP at or close to Km.
Excerpt: as §1

Setting [2] is: 5 μM ATP, 1 μM poly(Glu)4Tyr, 25° C., 1 nM JAK3, read-out: JAK-3 Ki.

Read-outs that look alike come from different tables or passages of the source. A value given as a limit tells only on which side of the number the result lay.

Chain of N-terminally truncated Abl kinase (P00519 28-1130): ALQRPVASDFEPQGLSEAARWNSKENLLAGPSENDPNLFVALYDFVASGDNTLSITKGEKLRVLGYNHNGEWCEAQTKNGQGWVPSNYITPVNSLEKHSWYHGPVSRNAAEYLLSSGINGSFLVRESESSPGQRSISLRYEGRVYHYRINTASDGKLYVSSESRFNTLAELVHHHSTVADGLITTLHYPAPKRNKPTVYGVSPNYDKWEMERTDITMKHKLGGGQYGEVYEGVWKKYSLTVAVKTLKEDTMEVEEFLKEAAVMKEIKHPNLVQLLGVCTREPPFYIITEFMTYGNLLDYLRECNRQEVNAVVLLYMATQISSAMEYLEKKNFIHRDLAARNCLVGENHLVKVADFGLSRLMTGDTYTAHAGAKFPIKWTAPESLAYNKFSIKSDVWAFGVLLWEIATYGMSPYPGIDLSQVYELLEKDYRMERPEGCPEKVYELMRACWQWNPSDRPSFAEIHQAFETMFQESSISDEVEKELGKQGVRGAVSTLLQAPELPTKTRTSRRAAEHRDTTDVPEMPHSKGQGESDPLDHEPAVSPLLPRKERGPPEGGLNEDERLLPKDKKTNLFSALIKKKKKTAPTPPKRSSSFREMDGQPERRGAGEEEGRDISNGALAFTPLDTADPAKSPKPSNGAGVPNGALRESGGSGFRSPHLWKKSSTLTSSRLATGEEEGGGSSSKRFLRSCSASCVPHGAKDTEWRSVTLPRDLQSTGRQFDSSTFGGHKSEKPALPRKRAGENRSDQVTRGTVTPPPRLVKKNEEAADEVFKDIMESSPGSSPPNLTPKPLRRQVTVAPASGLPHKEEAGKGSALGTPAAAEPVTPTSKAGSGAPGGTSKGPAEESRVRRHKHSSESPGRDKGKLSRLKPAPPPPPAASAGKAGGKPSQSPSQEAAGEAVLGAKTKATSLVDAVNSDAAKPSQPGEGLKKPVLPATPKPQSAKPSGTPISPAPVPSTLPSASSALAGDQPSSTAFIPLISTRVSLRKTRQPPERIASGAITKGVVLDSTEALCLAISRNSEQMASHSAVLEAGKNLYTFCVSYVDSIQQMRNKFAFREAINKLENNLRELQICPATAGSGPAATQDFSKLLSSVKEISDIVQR
Chain of FGFR1 (P11362 22-822, species assumed): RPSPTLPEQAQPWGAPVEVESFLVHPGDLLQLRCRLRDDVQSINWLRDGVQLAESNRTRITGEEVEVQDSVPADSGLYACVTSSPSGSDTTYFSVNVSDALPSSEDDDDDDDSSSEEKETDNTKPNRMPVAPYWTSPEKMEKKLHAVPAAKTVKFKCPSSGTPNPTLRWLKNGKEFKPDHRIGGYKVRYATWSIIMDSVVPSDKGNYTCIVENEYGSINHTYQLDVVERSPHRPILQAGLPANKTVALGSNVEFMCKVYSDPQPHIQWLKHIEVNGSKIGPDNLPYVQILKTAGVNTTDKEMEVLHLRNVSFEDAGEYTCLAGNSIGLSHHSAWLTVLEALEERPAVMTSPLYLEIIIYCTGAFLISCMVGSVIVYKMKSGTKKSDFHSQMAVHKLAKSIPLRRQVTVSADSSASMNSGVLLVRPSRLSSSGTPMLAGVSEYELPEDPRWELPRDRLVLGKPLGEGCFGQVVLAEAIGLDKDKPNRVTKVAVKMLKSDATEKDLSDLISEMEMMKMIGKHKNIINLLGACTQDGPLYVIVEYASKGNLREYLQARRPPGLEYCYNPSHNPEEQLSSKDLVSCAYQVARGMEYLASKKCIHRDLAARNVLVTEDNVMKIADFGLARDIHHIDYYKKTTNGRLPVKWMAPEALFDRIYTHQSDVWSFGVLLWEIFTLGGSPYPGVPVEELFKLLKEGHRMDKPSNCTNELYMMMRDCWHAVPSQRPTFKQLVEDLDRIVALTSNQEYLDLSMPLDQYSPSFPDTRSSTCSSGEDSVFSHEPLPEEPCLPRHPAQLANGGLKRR
Chain of MLK1 (P80192 whole entry, species assumed): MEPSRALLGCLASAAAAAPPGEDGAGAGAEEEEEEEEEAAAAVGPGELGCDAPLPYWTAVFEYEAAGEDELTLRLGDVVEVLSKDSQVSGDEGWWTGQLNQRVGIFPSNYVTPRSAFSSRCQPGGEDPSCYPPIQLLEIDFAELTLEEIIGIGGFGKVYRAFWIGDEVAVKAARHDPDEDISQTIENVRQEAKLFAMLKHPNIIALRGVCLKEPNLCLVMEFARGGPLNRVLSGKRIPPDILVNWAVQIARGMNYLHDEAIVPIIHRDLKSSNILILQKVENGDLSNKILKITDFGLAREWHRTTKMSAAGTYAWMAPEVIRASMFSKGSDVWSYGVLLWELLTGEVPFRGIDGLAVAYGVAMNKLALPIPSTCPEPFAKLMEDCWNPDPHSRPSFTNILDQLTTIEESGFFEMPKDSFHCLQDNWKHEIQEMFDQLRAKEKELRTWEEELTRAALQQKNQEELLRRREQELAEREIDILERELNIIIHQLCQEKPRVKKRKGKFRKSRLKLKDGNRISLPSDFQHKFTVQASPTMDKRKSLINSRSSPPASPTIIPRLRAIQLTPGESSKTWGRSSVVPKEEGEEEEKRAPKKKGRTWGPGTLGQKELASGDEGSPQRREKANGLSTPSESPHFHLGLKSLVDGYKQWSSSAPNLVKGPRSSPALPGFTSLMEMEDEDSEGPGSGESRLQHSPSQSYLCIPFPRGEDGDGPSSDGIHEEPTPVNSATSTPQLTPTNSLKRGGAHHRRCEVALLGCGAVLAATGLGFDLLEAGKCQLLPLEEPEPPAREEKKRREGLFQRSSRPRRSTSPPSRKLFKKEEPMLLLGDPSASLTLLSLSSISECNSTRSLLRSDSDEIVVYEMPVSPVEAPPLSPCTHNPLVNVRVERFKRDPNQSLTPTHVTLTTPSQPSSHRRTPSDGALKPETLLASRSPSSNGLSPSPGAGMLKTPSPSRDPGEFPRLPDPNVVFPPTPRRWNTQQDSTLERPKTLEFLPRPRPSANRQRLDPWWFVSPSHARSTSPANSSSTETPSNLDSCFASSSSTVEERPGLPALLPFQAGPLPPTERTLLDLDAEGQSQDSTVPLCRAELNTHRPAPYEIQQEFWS
Chain of Ret (P07949 29-1114, species assumed): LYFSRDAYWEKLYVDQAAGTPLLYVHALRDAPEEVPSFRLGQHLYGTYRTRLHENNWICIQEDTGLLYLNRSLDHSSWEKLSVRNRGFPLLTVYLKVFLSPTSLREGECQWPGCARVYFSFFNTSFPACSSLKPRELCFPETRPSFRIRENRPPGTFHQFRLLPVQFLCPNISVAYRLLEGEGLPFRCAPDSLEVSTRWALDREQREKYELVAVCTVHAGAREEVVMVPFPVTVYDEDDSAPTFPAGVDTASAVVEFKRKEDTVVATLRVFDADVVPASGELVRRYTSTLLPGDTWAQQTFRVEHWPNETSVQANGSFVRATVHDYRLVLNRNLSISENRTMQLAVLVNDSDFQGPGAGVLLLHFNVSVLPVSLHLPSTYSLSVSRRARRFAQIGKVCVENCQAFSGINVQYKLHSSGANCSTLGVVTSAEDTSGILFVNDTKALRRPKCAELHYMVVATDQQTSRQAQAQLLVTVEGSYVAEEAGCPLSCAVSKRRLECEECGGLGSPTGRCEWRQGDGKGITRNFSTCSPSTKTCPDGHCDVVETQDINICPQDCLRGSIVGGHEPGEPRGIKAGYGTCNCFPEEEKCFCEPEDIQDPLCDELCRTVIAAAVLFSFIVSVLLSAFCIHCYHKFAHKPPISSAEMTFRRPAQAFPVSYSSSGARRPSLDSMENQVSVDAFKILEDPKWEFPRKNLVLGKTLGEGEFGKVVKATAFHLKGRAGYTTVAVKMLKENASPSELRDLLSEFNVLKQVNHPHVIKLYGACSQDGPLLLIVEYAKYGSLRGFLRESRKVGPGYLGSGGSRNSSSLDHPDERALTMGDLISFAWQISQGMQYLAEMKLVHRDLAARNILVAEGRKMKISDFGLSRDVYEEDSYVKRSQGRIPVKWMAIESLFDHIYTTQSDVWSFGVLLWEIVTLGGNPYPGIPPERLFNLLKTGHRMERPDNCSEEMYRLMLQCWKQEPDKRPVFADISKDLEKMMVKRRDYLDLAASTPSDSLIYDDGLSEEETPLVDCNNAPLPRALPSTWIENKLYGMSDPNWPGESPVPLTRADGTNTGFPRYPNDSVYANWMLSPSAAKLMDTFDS
Chain of MELK (Q14680 whole entry, species assumed): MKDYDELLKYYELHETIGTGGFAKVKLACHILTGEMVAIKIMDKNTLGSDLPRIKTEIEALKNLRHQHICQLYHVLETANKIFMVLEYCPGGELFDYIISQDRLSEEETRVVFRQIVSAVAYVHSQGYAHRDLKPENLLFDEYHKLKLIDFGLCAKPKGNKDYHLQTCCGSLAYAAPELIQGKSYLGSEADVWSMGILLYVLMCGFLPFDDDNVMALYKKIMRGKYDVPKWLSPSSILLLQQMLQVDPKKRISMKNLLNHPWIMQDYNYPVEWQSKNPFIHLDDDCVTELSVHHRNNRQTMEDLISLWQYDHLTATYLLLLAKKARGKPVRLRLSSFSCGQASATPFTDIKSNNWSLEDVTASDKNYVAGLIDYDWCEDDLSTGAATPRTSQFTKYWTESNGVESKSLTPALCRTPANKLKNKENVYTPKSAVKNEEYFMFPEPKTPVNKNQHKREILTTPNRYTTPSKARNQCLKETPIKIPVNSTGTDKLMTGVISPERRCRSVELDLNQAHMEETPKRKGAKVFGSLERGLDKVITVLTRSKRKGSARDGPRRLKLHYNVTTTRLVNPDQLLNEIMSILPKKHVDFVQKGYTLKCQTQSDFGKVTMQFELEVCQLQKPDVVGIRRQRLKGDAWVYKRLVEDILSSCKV
Experimental for JAK3: Reactions were carried out in a kinase buffer containing 100 mM HEPES (pH 7.4), 1 mM DTT, 10 mM MgCl2, 25 mM NaCl, and 0.01% BSA. Substrate concentrations in the assay were 5 μM ATP (200 uCi/μmole ATP) and 1 μM poly(Glu)4Tyr. Reactions were carried out at 25° C. and 1 nM JAK3.
To each well of a 96 well polycarbonate plate was added 1.5 μl of a candidate JAK3 inhibitor along with 50 μl of kinase buffer containing 2 μM poly(Glu)4Tyr and 10 μM ATP. This was then mixed and 50 μl of kinase buffer containing 2 nM JAK3 enzyme was added to start the reaction. After 20 minutes at room temperature (25 C), the reaction was stopped with 50 μl of 20% trichloroacetic acid (TCA) that also contained 0.4 mM ATP. The entire contents of each well were then transferred to a 96 well glass fiber filter plate using a TomTek Cell Harvester. After washing, 60 μl of scintillation fluid was added and ^33P incorporation detected on a Perkin Elmer TopCount.

Broadly, the Ki is a dissociation constant, usually derived from enzyme kinetics or from competition with a known ligand. As for `Cc1cc(Nc2cc(N3CCC3)nc(Sc3ccc(NC(=O)c4ccccc4Cl)cc3)n2)[nH]n1` [Compound I-1, N-{4-[4-Azetidin-1-yl-6-(5-methyl-2H-pyrazol-3-ylamino)-pyrimidin-2-ylsulfanyl]-phenyl}-2-chloro-benzamide], the Ki is 160 nM on JAK3; 36 nM in assay [1]; 12 nM on Arg (Abl-2); 5 nM at FGFR1; 17 nM at MELK; less than 18 nM at MLK1. Besides, the values for the inhibition constant Ki on MuSK, on Ret and on TrkA were 70 nM, 8 nM and less than 6 nM, respectively.

Turning to `Cc1cc(Nc2cc(N3CCC3)nc(Sc3ccc(NC(=O)c4c(F)cccc4F)cc3)n2)[nH]n1` [Compound I-2, N-{4-[4-Azetidin-1-yl-6-(5-methyl-2H-pyrazol-3-ylamino)-pyrimidin-2-ylsulfanyl]-phenyl}-2,6-Difluoro-benzamide], in assay [1], the Ki stood at 7 nM.

As to `Cc1cc(Nc2cc(N3CCC3)nc(Sc3ccc(NC(=O)c4ccccc4C)cc3)n2)[nH]n1` [Compound I-5], in assay [1], the Ki came to 68 nM.

As to `Cc1cc(Nc2cc(N3CCC3)nc(Sc3ccc(NC(=O)c4c(Cl)cccc4Cl)cc3)n2)n[nH]1` [Compound I-11], the Ki in [1] was found to be 21 nM.

As for `Cc1cc(Nc2cc(N3CCC3)nc(Sc3ccc(NC(=O)c4cccc(C(F)(F)F)c4F)cc3)n2)n[nH]1` [Compound I-13], on JAK3, the affinity corresponds to a Ki of 220 nM.

Consider `Cc1cc(Nc2cc(N3CCC3)nc(Sc3ccc(NC(=O)c4ccccc4C(F)(F)F)cc3)n2)[nH]n1` [Compound I-14], for which the Ki in assay [1] was 36 nM.

Turning to `Cc1cc(Nc2cc(N3CCC3)nc(Sc3ccc(NC(=O)c4cccc(Cl)c4F)cc3)n2)n[nH]1` [Compound I-15], the results for the Ki (on JAK3 (setting [2]); in assay [1]) were 120 nM and 31 nM, respectively.

Turning to `O=C(Nc1ccc(Sc2nc(Nc3cc(C4CC4)[nH]n3)cc(N3CCC3)n2)cc1)c1ccccc1Cl` [Compound I-17], the Ki at JAK3 (setting [2]) was determined as 79 nM.

On JAK3, `Cc1cc(Nc2cc(N3CCC3)nc(Sc3ccc(NC(=O)c4cccc(C)c4Cl)cc3)n2)n[nH]1` [Compound I-20] gave a Ki of 61 nM.

Molecule `CCc1cccc(C(=O)Nc2ccc(Sc3nc(Nc4cc(C)[nH]n4)cc(N4CCC4)n3)cc2)c1Cl` [Compound I-22] had a Ki on JAK3 of 62 nM.

(Values after US8557833B2, “Aminopyrimidines useful as kinase inhibitors” (priority 2005, dated 2013).)
